Results as given in patent US9707185B2, “Water-soluble nanoparticles containing water-insoluble compounds” (Board of Supervisors of Louisana State University And …, priority 2007, dated 2017).
Read-outs that look alike come from different tables or passages of the source.

Columns and labels:
[1] = cited from earlier work; for Comments: solubility: water / lipid solubility; for Comments: stability: light, heat, acid, oxidation, SO2, ascorbic acid
[2] = β-carotene solubility in organic solvents; type: physicochemical; details: organic solvent or mixture
[3] = color photographs, dispersed in water

Molecule | Comments: solubility [1] | Comments: stability ([1]; in presence of ascorbic acid) | also measured
COc1cc(/C=C/C(=O)CC(=O)/C=C/c2ccc(O)c(OC)c2)ccc1O [Curcumin] | low water solubility | – | –
CC1=C[C@H](O)CC(C)(C)[C@H]1/C=C/C(C)=C/C=C/C(C)=C/C=C/C=C(C)/C=C/C=C(C)/C=C/C1=C(C)C[C@@H](O)CC1(C)C [Lutein] | – | Fades in the presence of ascorbic acid. | Comments: stability ([1]; to light): Poor stability to light, heat, acid, oxidation, and SO2.
Capsanthin/capsorubin | – | – | Comments: stability [1]: Fair stability to light and heat
Chlorophyll | Liposoluble. Not allowed as a colorant in the U.S. | – | –
CC1=C(/C=C/C(C)=C/C=C/C(C)=C/C=C/C=C(C)/C=C/C=C(C)/C=C/C2=C(C)CCCC2(C)C)C(C)(C)CCC1 [β-carotene] | – | – | solubility [2]: ≤ 20 mg/mL; color and distribution in water [3]: non-uniform color and distribution
Cc1c(C(=O)O)c(O)cc2c1C(=O)c1c(O)c([C@@H]3O[C@H](CO)[C@@H](O)[C@H](O)[C@H]3O)c(O)c(O)c1C2=O [Carmine, carminic acid, carminic acid] | Water soluble | Fades in the presence of ascorbic acid or SO2 | Comments: stability ([1]; to light, heat and acid): Good stability to light, heat, and acid
